Measurements from ChEMBL document CHEMBL1123717, “Folate analogues as inhibitors of thymidylate synthase” (J Med Chem, 1987).

Tests used:
Thymidylate synthase [1] = target: T1, Thymidylate synthase (Homo sapiens, UniProt P04818); test: Ability to inhibit thymidylate synthase derived from human leukemia K562 cells; assay type: cell-based
Thymidylate synthase [2] = target: T1, Thymidylate synthase; test: Inhibitory constant of thymidylate synthase was determined in human AML cells; assay type: cell-based
Thymidylate synthase [3] = target: T2, Thymidylate synthase (Lactobacillus casei, UniProt P00469); test: Ability to inhibit thymidylate synthase derived from Lactobacillus casei; design: species or system Lacticaseibacillus casei
T2 sequence (P00469 whole entry): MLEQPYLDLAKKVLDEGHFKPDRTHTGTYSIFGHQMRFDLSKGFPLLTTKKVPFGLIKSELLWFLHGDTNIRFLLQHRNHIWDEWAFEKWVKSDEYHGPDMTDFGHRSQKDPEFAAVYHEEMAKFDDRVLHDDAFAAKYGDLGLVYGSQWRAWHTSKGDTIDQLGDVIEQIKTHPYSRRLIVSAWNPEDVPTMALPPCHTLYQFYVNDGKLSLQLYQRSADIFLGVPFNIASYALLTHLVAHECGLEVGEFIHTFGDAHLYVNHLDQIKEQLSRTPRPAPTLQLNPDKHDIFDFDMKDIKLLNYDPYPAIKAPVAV

Thymidylate synthase [4] = target: T1, Thymidylate synthase; test: Inhibitory activity against human thymidylate synthase derived either from HeLa or KB cells; assay type: cell-based

T1 sequence (P04818 whole entry): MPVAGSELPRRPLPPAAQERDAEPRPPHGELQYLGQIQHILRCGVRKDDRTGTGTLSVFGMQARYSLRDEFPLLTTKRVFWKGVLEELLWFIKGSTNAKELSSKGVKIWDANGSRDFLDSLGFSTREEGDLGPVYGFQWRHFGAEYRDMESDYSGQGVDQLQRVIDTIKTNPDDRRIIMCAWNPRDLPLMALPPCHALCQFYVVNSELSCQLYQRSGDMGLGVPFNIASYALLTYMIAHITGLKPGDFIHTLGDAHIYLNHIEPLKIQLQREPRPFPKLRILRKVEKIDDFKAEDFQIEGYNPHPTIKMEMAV

Compound | IC50 (Thymidylate synthase [1]) [µM] | further results
CN(Cc1ccc2nc(N)[nH]c(=O)c2n1)c1ccc(C(=O)N[C@@H](CCC(=O)O)C(=O)O)cc1 | 2.5 | 
C#CCN(Cc1ccc2nc(N)[nH]c(=O)c2n1)c1ccc(C(=O)N[C@@H](CCC(=O)O)C(=O)O)cc1 | 2.4 | 
Nc1nc2ncc(CNc3ccc(C(=O)N[C@@H](CCC(=O)O)C(=O)O)cc3)nc2c(=O)[nH]1 [FOLIC ACID] | 290 | Ki (Thymidylate synthase [2]): 40 µM
C#CCN(Cc1cnc2nc(N)[nH]c(=O)c2n1)c1ccc(C(=O)N[C@@H](CCC(=O)O)C(=O)O)cc1 | 5.5 | IC50 (Thymidylate synthase [3]): 3.9 µM
C#CCN(Cc1ccc2nc(N)nc(N)c2n1)c1ccc(C(=O)NC(CCC(=O)O)C(=O)O)cc1 (stereo unspecified) | 1.26 | 
Nc1nc(O)c2nc(CNc3ccc(C(=O)N[C@@H](CCC(=O)O)C(=O)O)cc3)ccc2n1 | 55 | 
CN(Cc1cnc2nc(N)[nH]c(=O)c2n1)c1ccc(C(=O)N[C@@H](CCC(=O)O)C(=O)O)cc1 [METHOPTERINE] |  | Ki (Thymidylate synthase [2]): 1 µM
C#CN(Cc1cnc2nc(N)nc(N)c2n1)c1ccc(C(=O)NC(CCC(=O)O)C(=O)O)cc1 (stereo unspecified) |  | IC50 (Thymidylate synthase [4]): 0.02 µM
CN(Cc1ccc2nc(N)[nH]c(=O)c2c1)c1ccc(C(=O)N[C@@H](CCC(=O)O)C(=O)O)cc1 | 0.29 | 
